Counter-ions that a name gives are not always drawn. Like-named read-outs stand apart in the source and are kept apart here.
Legend:
SUDHL5 [1] = experiment: Induction of caspase-3/7 activity (Assay 4), SUDHL5; type: cell-based; details: SUDHL5 cells
In short: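 DLBCL cells treated with compounds for 3 hours at 37° C. Caspase-3/7 activity measured by Caspase-Glo 3/7 luminescence, with medium-only background subtracted.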

HMC-1-8 = experiment: Antiproliferation assay 7, HMC-1-8; type: cell-based; details: HMC-1-8 cells, CellTiter-Glo, read-out: Antiproli HMC-1-8 IC50 median
In short: (§1)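 Cells were exposed to compound for 72 hours at 37° C. Viability was measured by CellTiter-Glo luminescence. A day 0 plate read at the start served as the time-zero reference.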

MCL-1 [2] = biological target: T1, MCL-1 (Homo sapiens (Human), UniProt Q07820, K194A/K197A/R201A); experiment: Protein-compound interaction assay (SPR assay 8); type: binding; details: immobilized MBP-MCL-1, 25° C.; for Kd: read-out: KD (geo mean)
T1 sequence (Q07820 whole entry K194A/K197A/R201A, looked up): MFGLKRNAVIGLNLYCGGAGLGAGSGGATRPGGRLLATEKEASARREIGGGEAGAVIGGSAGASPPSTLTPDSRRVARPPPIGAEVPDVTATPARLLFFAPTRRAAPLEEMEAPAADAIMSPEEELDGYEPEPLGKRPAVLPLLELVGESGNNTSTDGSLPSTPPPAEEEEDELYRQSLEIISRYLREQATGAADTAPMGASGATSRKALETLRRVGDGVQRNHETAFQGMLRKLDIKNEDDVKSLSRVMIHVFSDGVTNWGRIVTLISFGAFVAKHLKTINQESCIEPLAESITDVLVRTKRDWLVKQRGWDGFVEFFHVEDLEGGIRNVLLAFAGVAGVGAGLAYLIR
Description: Assay 8 Protein-Compound Interaction Assay (SPR Assay)
The ability of the compounds described in this invention to bind to MCL-1 may be determined using surface plasmon resonance (SPR). This allows for the quantification of binding in terms of the equilibrium dissociation constant (KD [M]), as well as association and dissociation rate constants (kon [1/M 1/s] and koff [1/s], respectively). The measurements may be performed using Biacore® T200 or Biacore® S200 instruments (GE Healthcare).
MBP-MCL-1 was diluted in 1×PBS-P+ (GE Healthcare) and injected on the activated chip surface. Subsequently, a solution of 1 M ethanolamine-HCl (GE Healthcare) was injected to block unreacted groups, resulting in approximately 400-2500 response units (RU) of immobilized protein. A reference surface was generated by treatment with NHS-EDC and ethanolamine-HCl.
The double-referenced sensorgrams were fit to a simple reversible Langmuir 1:1 reaction mechanism as implemented in the Biacore® T200 and S200 evaluation software (T200 evaluation software version 2.0 and S200 evaluation software version 1.0, GE Healthcare).

SUDHL5 [3] = experiment: Induction of cytotoxicity (Assay 6), SUDHL5; details: read-out: Cytotox SUDHL5 IC50 (median); SUDHL5 cells, 5 hours, CellTiter-Glo
SUDHL5 [4] = experiment: Antiproliferation assay 7, SUDHL5; type: cell-based; details: SUDHL5 cells, CellTiter-Glo, read-out: Antiproli SUDHL5 IC50 (median)
In short: as §1

SUDHL10 [5] = experiment: Induction of caspase-3/7 activity (Assay 4), SUDHL10; type: cell-based; details: SUDHL10 cells, 3 hours, Caspase-Glo 3/7; read-out: Caspase SUDHL10 EC50 (median)
In short: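 SUDHL10 DLBCL cells treated with compounds for 3 hours at 37 °C in a humidified incubator. Caspase-3/7 activity read with Caspase-Glo 3/7 luminescent reagent. Medium-only background subtracted from all values.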

AMO-1 = experiment: Antiproliferation assay 7, AMO-1; type: cell-based; details: AMO-1 cells, CellTiter-Glo, read-out: Antiproli AMO-1 IC50 median
In short: as §1

MCL-1 [6] = biological target: T1, MCL-1; experiment: Protein-protein interaction assay MCL-1/Noxa BH3 peptide (MCL-1 Assay, TR-FRET); type: binding; details: read-out: MCL-1 Assay IC50 (median)
SUDHL10 [7] = experiment: Induction of cytotoxicity (Assay 6), SUDHL10; details: read-out: Cytotox SUDHL10 IC50 (median); SUDHL10 cells, 5 hours, CellTiter-Glo
MV-4-11 = experiment: Antiproliferation assay 7, MV-4-11; type: cell-based; details: MV-4-11 cells, 72 hours, CellTiter-Glo; read-out: Antiproli MV-4-11 IC50 median
In short: as §1

[8] = 3 hours, Caspase-Glo 3/7, read-out: Caspase SUDHL5 EC50 (median)

SMILES	EC50 (SUDHL5 [1]; [8]) [nM]	IC50 (HMC-1-8; 72 h) [nM]	Kd (MCL-1 [2]) [nM]	koff (MCL-1 [2]; read-out: koff (geo mean)) [s⁻¹]	kon (MCL-1 [2]; read-out: kon (geo mean)) [M⁻¹ s⁻¹]	IC50 (SUDHL5 [3]) [nM]	IC50 (SUDHL5 [4]; Homo sapiens, SU-DHL-5, 72 h) [nM]	EC50 (SUDHL10 [5]) [nM]	IC50 (AMO-1; 72 hours) [nM]	IC50 (MCL-1 [6]) [nM]	IC50 (SUDHL10 [7]) [nM]	IC50 (HMC-1-8; 72 hours) [nM]	IC50 (SUDHL5 [4]; 72 hours) [nM]	IC50 (MV-4-11) [nM]	EC50 (SUDHL5 [1]; Homo sapiens, SU-DHL-5, 3 h, Caspase-Glo 3/7, read-out: Caspase SUDHL5 EC50 (median)) [nM]	IC50 (AMO-1; Homo sapiens, AMO1, 72 h) [nM]
Cc1c2c(nn1C)N(C)CCCCCn1c(C(=O)O)c(CCCOc3cccc4ccccc34)c3ccc(Cl)c-2c31 (single isomer, unassigned) [Example 72, (+)-4-chloro-2,3,15-trimethyl-7-{3-[(naphthalen-1-yl)oxy]propyl}-10,11,12,13,14,15-hexahydro-2H-pyrazolo[4′,3′:4,5][1,6]diazacycloundecino[3,2,1-hi]indole-8-carboxylic acid]	700	19000	11	0.016	1.4e+06	880	1200	1900	1700	0.96	1600	–	–	–	–	–
Cc1c2c(nn1C)CN(C)CCCCn1c(C(=O)O)c(CCCOc3cccc4cc(F)ccc34)c3ccc(Cl)c-2c31 (single isomer, unassigned; enantiomer 1) [Example 31, (+)-4-chloro-7-{3-[(6-fluoronaphthalen-1-yl)oxy]propyl}-2,3,14-trimethyl-10,11,12,13,14,15-hexahydro-2H-pyrazolo[3′,4′:8,9][1,6]diazacycloundecino[10,11,1-hi]indole-8-carboxylic acid-N-ethylethanamine Salt (Enantiomer 1)]	55	–	0.43	–	–	53	–	65	174	0.71	82	1920	53	275	–	–
Cc1c2c(nn1CCCN1CCN(C)CC1)COCCCCn1c(C(=O)O)c(CCCOc3cccc4ccccc34)c3ccc(Cl)c-2c31 (single isomer, unassigned; enantiomer 1) [Example 49, (+)-4-chloro-3-methyl-2-[3-(4-methylpiperazin-1-yl)propyl]-7-{3-[(naphthalen-1-yl)oxy]propyl}-2,10,11,12,13,15-hexahydropyrazolo[4′,3′:9,10][1,6]oxazacycloundecino[8,7,6-hi]indole-8-carboxylic Acid (Enantiomer 1)]	520	–	1.7	–	–	660	–	450	1340	0.75	620	3060	480	–	–	–
Cc1c2c(nn1C)COCC1CC1Cn1c(C(=O)O)c(CCCOc3cccc4ccccc34)c3ccc(Cl)c-2c31 (single isomer, unassigned; stereoisomer 1) [Example 65, (9aS,10aR or 9aR, 10aS)-3-chloro-4,5-dimethyl-14-{3-[(naphthalen-1-yl)oxy]propyl}-5,7,9a, 10,10a, 11-hexahydro-9H-cyclopropa[3,4]pyrazolo[4′,3′:9,10][1,6]oxazacycloundecino-[8,7,6-hi]indole-13-carboxylic Acid—Stereoisomer 1]	–	–	3.6	–	–	410	–	570	–	0.92	400	7580	–	–	410	1420

Source: patent US11447504B2, “Macrocyclic chlorine substituted indole derivatives” (Bayer Aktiengesellschaft, priority 2017, dated 2022)
